What all share (assay type): functional
For test [1], the system named is Human immunodeficiency virus 1. As to the kind of experiment: Effective dose achieving 50% protection of MT-4 cells against the cytopathic effect of HIV. Conditions: Human immunodeficiency virus 1, MT4; read-out: ED50 (the source's name). On the technique in general: Cytopathic effects are the visible damage that an infection or toxin causes in cultured cells.
Test [2] deals with MT4. The test can be described thus: Cytotoxic dose required to reduce the viability of normal uninfected MT-4 cells by 50%. Conditions: Homo sapiens, read-out: CD50 (the source's name).
In test [3] the test system is MT4. The test can be described thus: Selectivity index of CD50 to ED50 of MT-4 cells.

The structures appear in SMILES notation.

Results on 20 compounds are retold here after ChEMBL document CHEMBL1124810, “Synthesis and anti-HIV evaluation of 2',3'-dideoxyribo-5-chloropyrimidine analogues: reduced toxicity of 5-chlorinated 2',3'-dideoxynucleosides” (1990).

For the compound `Nc1nc(=O)n(C2C[C@@H](F)[C@@H](CO)O2)cc1Cl` (some centres not stated), the EC50 in test [1] stood at 26 µM. Besides, the CC50 in the test on MT4 [2] is more than 1000 µM. The Selectivity index in the test with MT4 [3] was more than 38.
As to `Nc1ccn([C@H]2CC[C@@H](CO)O2)c(=O)n1` [ZALCITABINE], the EC50 in test [1] is 0.3 µM. Also, in the test with MT4 [2], the CC50 was 40 µM. In addition, the Selectivity index in the test with MT4 [3] worked out at 120.
In the case of `[N-]=[N+]=N[C@@H]1CC(n2cc(Cl)c(=O)[nH]c2=O)O[C@@H]1CO` (some centres not stated), the EC50 in test [1] was 0.72 µM. Also, the CC50 in the test with MT4 [2] was determined as 213 µM. The same compound yielded a Selectivity index in the test on MT4 [3] of 296.
On to `O=c1[nH]c(=O)n(C2CCC(CO)O2)cc1Cl` (configuration not stated), for which the EC50 in test [1] amounted to 81 µM. The CC50 in the test with MT4 [2] was more than 500 µM. In addition, the Selectivity index in the test on MT4 [3] is more than 6.
Turning to `O=c1[nH]c(=O)n([C@H]2C[C@H](F)[C@@H](CO)O2)cc1Cl` [RALURIDINE], the EC50 in test [1] was 0.38 µM. The Selectivity index with MT4 [3] was 1408.
With `O=c1[nH]c(=O)n([C@H]2C=C[C@@H](CO)O2)cc1Cl`, the EC50 in test [1] is more than 20 µM. The CC50 in the test on MT4 [2] turned out to be 44 µM. Also, in the test on MT4 [3], the Selectivity index is listed as less than 2.2.
With `Cc1cn([C@H]2C=C[C@@H](CO)O2)c(=O)[nH]c1=O` [STAVUDINE], the EC50 in test [1] amounted to 0.05 µM. Further, in the test on MT4 [2], the CC50 amounted to 19 µM. For the same compound, the Selectivity index with MT4 [3] was determined as 380.
With `Cc1cn(/C=C/C(O)C(O)CO)c(=O)[nH]c1=O` (configuration not stated), the EC50 in test [1] stood at 475 µM. Also, the CC50 in the test with MT4 [2] is more than 500 µM. Also, the Selectivity index in the test on MT4 [3] is on record as more than 1.
As to `O=c1ccn(C2C[C@@H](F)[C@@H](CO)O2)c(=O)[nH]1` (some centres not stated), the EC50 in test [1] is 0.06 µM. Moreover, the CC50 with MT4 [2] is 1.1 µM. Further, the Selectivity index in the test on MT4 [3] is reported as 18.
Turning to `[N-]=[N+]=N[C@H]1C[C@H](n2ccc(N)nc2=O)O[C@@H]1CO`, the EC50 in test [1] amounted to 7.6 µM. The CC50 with MT4 [2] was 160 µM. In the test on MT4 [3], this compound registered a Selectivity index of 21.
For the compound `[N-]=[N+]=N[C@H]1C[C@H](n2ccc(=O)[nH]c2=O)O[C@@H]1CO` [NAVURIDINE], the EC50 in test [1] was found to be 0.43 µM. Besides, the CC50 with MT4 [2] was 39 µM. In the test on MT4 [3], this compound showed a Selectivity index of 90.
Turning to `O=c1ccn([C@H]2C=C[C@@H](CO)O2)c(=O)[nH]1`, the EC50 in test [1] was more than 20 µM. Also, the CC50 with MT4 [2] worked out at 39 µM. This compound yielded a Selectivity index with MT4 [3] of less than 2.
Consider `O=c1ccn(/C=C/C(O)C(O)CO)c(=O)[nH]1` (configuration not stated), for which, in test [1], the EC50 is more than 500 µM. Further, in the test with MT4 [2], the CC50 was more than 500 µM.
In the case of `[N-]=[N+]=N[C@@H]1CC(n2cc(Cl)c(N)nc2=O)O[C@@H]1CO` (some centres not stated), the EC50 in test [1] stood at 9 µM. Moreover, the CC50 in the test on MT4 [2] amounted to 877 µM. In addition, the Selectivity index in the test on MT4 [3] was determined as 97.
With `Nc1ccn(C2C[C@@H](F)[C@@H](CO)O2)c(=O)n1` (some centres not stated), the EC50 in test [1] worked out at 16 µM. The CC50 in the test with MT4 [2] is 26 µM. Besides, the Selectivity index with MT4 [3] was found to be 1.6.
Regarding `Cc1cn([C@H]2C[C@H](N=[N+]=[N-])[C@@H](CO)O2)c(=O)[nH]c1=O` [ZIDOVUDINE], the EC50 in test [1] worked out at 0.003 µM. For the same compound, in the test on MT4 [2], the CC50 came out at 4.81 µM. For the same compound, in the test with MT4 [3], the Selectivity index was 1603.
For `Nc1nc(=O)n(C2CCC(CO)O2)cc1Cl` (configuration not stated), the EC50 in test [1] was more than 500 µM. Also, in the test on MT4 [2], the CC50 is more than 500 µM.
Regarding `Nc1nc(=O)n([C@H]2C=C[C@@H](CO)O2)cc1Cl`, the EC50 in test [1] is 22 µM. Also, the CC50 with MT4 [2] stood at 185 µM. The Selectivity index with MT4 [3] came out at 8.4.
For `Nc1ccn([C@H]2C=C[C@@H](CO)O2)c(=O)n1`, in that order: 0.13 µM, 7.9 µM and 61.
As to `O=c1ccn(C2CCC(CO)O2)c(=O)[nH]1` (configuration not stated), the EC50 in test [1] stood at 210 µM. For the same compound, in the test on MT4 [2], the CC50 was more than 625 µM. The compound further came in with a Selectivity index in the test with MT4 [3] of more than 3.
